# Laboratory results: PubChem BioAssay AID330 (DTP/NCI, 2004)
# “And” between values parts separate entries of the source, which are not always exact repeats. Equal values may be shown once. Inconclusive results and toxic doses are left out.
# System: P388 leukemia ip, CD2F1 mice, survival T/C
# Assay: NCI In Vivo Anticancer Drug Screen. Data for tumor model P388 Leukemia (intraperitoneal) in CD2F1 (CDF1) mice
# Conditions: endpoint: median survival time, higher = longer survival
# Procedure, shortened: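 Mice carrying the transplanted tumor received test compound or vehicle. Survival was recorded in each group, and the value is the treated-group measurement divided by that of the vehicle-treated control group.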
# [1] = dose: 100.0 mg/kg/injection, schedule: Q04DX003 (ip), vehicle: saline with Tween-80
# [2] = dose: 200.0 mg/kg/injection, schedule: Q04DX003 (ip), vehicle: saline with Tween-80
# [3] = dose: 400.0 mg/kg/injection, schedule: Q04DX003 (ip), vehicle: saline with Tween-80
# [4] = dose: 50.0 mg/kg/injection, schedule: Q01DX005 (ip), vehicle: saline with Tween-80
# [5] = dose: 100.0 mg/kg/injection, schedule: Q01DX005 (ip), vehicle: saline with Tween-80
# [6] = dose: 200.0 mg/kg/injection, schedule: Q01DX005 (ip), vehicle: saline with Tween-80
# [7] = dose: 50.0 mg/kg/injection, schedule: Q01DX009 (ip), vehicle: saline
# [8] = dose: 100.0 mg/kg/injection, schedule: Q01DX009 (ip), vehicle: saline
# [9] = dose: 100.0 mg/kg/injection, schedule: Q01DX009 (ip), vehicle: saline with Tween-80
# [10] = dose: 200.0 mg/kg/injection, schedule: Q01DX009 (ip), vehicle: saline with Tween-80
# [11] = dose: 60.0 mg/kg/injection, schedule: Q01DX005 (ip), vehicle: saline
# [12] = dose: 50.0 mg/kg/injection, schedule: Q01DX005 (ip), vehicle: Klucel (hydroxypropylcellulose) (HPC)
# [13] = dose: 100.0 mg/kg/injection, schedule: Q01DX005 (ip), vehicle: Klucel (hydroxypropylcellulose) (HPC)
# [14] = dose: 200.0 mg/kg/injection, schedule: Q01DX005 (ip), vehicle: Klucel (hydroxypropylcellulose) (HPC)
# [15] = dose: 50.0 mg/kg/injection, schedule: Q01DX009 (ip), vehicle: saline with Tween-80
smiles,measurement,setting,value
COc1ccc(Oc2nc(=O)n3ccsc3n2)cc1,T/C,[1],108 % of control
same,T/C,[2],86 % of control
same,T/C,[3],94 % of control
CCCC(Nc1nncs1)Nc1nncs1,T/C,[4],101 % of control
same,T/C,[5],112 % of control and 94 % of control
same,T/C,[6],108 % of control
same,T/C,"dose: 400.0 mg/kg/injection, schedule: Q01DX005 (ip), vehicle: saline with Tween-80",157 % of control
O=C1C(C2(O)C(=O)Nc3ccccc32)CCCC1C1(O)C(=O)Nc2ccccc21 (stereo not given),T/C,"dose: 60.0 mg/kg/injection, schedule: Q01DX005 (ip), vehicle: Klucel (hydroxypropylcellulose) (HPC)",90 % of control
same,T/C,"dose: 120.0 mg/kg/injection, schedule: Q01DX005 (ip), vehicle: Klucel (hydroxypropylcellulose) (HPC)",87 % of control
same,T/C,"dose: 240.0 mg/kg/injection, schedule: Q01DX005 (ip), vehicle: Klucel (hydroxypropylcellulose) (HPC)",89 % of control
CC1(c2ccc3ccccc3c2)C(C#N)(C#N)C1(C#N)C#N,T/C,"dose: 12.5 mg/kg/injection, schedule: Q01DX009 (ip), vehicle: saline",100 % of control
same,T/C,"dose: 25.0 mg/kg/injection, schedule: Q01DX009 (ip), vehicle: saline",102 % of control
same,T/C,[7],89 % of control
same,T/C,[8],103 % of control
O=C(N/N=C\c1cccc2ccccc12)C(=O)N/N=C/c1cccc2ccccc12,T/C,"dose: 12.5 mg/kg/injection, schedule: Q01DX005 (ip), vehicle: saline with Tween-80",93 % of control
same,T/C,"dose: 25.0 mg/kg/injection, schedule: Q01DX005 (ip), vehicle: saline with Tween-80",91 % of control
same,T/C,[4],94 % of control
same,T/C,[5],87 % of control
same,T/C,[6],91 % of control
COc1cccc2c1C(=O)c1c(O)c3c(c(O)c1C2=O)CC(O)(/C=N/NS(=O)(=O)c1ccc(C)cc1)CC3OC1CC(N)C(O)C(C)O1 (stereo not given),T/C,"dose: 6.25 mg/kg/injection, schedule: Q01DX009 (ip), vehicle: other",153 % of control
same,T/C,"dose: 12.5 mg/kg/injection, schedule: Q01DX009 (ip), vehicle: other",178 % of control
same,T/C,"dose: 25.0 mg/kg/injection, schedule: Q01DX009 (ip), vehicle: other",93 % of control
CN(C)c1nc(N/N=C/c2ccc([N+](=O)[O-])cc2)nc(N(C)C)n1,T/C,[1],98 % of control
same,T/C,[2],105 % of control
same,T/C,[3],93 % of control
N#C[C@H]1C[C@@H](c2ccccc2)N(c2ccccc2)O1,T/C,"dose: 50.0 mg/kg/injection, schedule: Q01DX005 (ip), vehicle: saline + Tween-80 + alcohol",98 % of control
same,T/C,"dose: 100.0 mg/kg/injection, schedule: Q01DX005 (ip), vehicle: saline + Tween-80 + alcohol",100 % of control
same,T/C,"dose: 200.0 mg/kg/injection, schedule: Q01DX005 (ip), vehicle: saline + Tween-80 + alcohol",100 % of control
COc1cccc(/C=C/S(=O)(=O)Cc2ccccc2)c1OC,T/C,[4],93 % of control
same,T/C,[5],100 % of control
same,T/C,[6],91 % of control
O=C(Nc1ccc2c(c1)Cc1cccc(NC(=O)C(Cl)Cl)c1-2)C(Cl)Cl,T/C,[9],90 % of control
same,T/C,[1],91 % of control
same,T/C,[10],95 % of control
same,T/C,[2],91 % of control
same,T/C,"dose: 400.0 mg/kg/injection, schedule: Q01DX009 (ip), vehicle: saline with Tween-80",100 % of control
same,T/C,[3],87 % of control
CCCCCC[N+]1([O-])CC[N+]([O-])(CCCCCC)CC1 (stereo not given),T/C,"dose: 15.0 mg/kg/injection, schedule: Q01DX005 (ip), vehicle: saline",101 % of control
same,T/C,"dose: 30.0 mg/kg/injection, schedule: Q01DX005 (ip), vehicle: saline",102 % of control
same,T/C,[11],102 % of control and 103 % of control
CC1CN1C1=C(Cl)C(=O)C(N2CC2C)=C(Cl)C1=O (stereo not given),T/C,"dose: 3.12 mg/kg/injection, schedule: Q01DX009 (ip), vehicle: Klucel (hydroxypropylcellulose) (HPC)",115 % of control
CN(C)CCN1C(=O)C2(C)C3CCC(O3)C2(C)C1=O (stereo not given),T/C,[4],103 % of control
same,T/C,[5],100 % of control
same,T/C,[6],100 % of control
CC(=O)O[C@H]1CC[C@H]2[C@@H]3CCC(=O)CC(=O)CCC(=O)[C@H]3CC[C@]12C,T/C,[12],108 % of control
same,T/C,[13],109 % of control
same,T/C,[14],105 % of control
Cc1ccc(/[N+]([O-])=N/N2C(=O)c3ccccc3C2=O)cc1,T/C,"dose: 25.0 mg/kg/injection, schedule: Q01DX005 (ip), vehicle: Klucel (hydroxypropylcellulose) (HPC)",101 % of control
same,T/C,[12],106 % of control
same,T/C,[13],108 % of control
Nc1nc(-c2ccccc2)c(CCCNc2ccc(C(=O)NC(CCC(=O)O)C(=O)O)cc2)c(=O)[nH]1 (stereo not given),T/C,[12],102 % of control
same,T/C,[13],102 % of control
same,T/C,[14],106 % of control
O=C(N1CCOCC1)C12OC3CC(CC(C3)O1)O2,T/C,[11],102 % of control
same,T/C,"dose: 120.0 mg/kg/injection, schedule: Q01DX005 (ip), vehicle: saline",104 % of control
same,T/C,"dose: 240.0 mg/kg/injection, schedule: Q01DX005 (ip), vehicle: saline",105 % of control
CCC12C=CCN3CC[C@@]4(c5cc([C@@]6(C(=O)OC)CC7CN(CCc8c6[nH]c6ccccc86)C[C@](O)(CC)C7)c(OC)cc5N(C)[C@H]4[C@]4(OCOC4=O)[C@@H]1O)C32 (stereo not given in full),T/C,"dose: 0.5 mg/kg/injection, schedule: Q01DX005 (ip), vehicle: saline",102 % of control
same,T/C,"dose: 1.0 mg/kg/injection, schedule: Q01DX005 (ip), vehicle: saline",91 % of control
same,T/C,"dose: 2.0 mg/kg/injection, schedule: Q01DX005 (ip), vehicle: saline",92 % of control
COC(=O)N1C=CC2ON=C(OC)C2C1c1ccccc1 (stereo not given),T/C,[4],98 % of control
same,T/C,[5],98 % of control
same,T/C,[6],101 % of control
CCN(CC)CCOC(=O)c1ccc(N=C/C=C/C(C#N)=C/NOC)cc1,T/C,[15],113 % of control
same,T/C,[9],101 % of control
same,T/C,[10],103 % of control
C1COCCOCCOCCOCCO1.[Br][Sn]([Br])([Br])[Br],T/C,"dose: 7.5 mg/kg/injection, schedule: Q01DX005 (ip), vehicle: Klucel (hydroxypropylcellulose) (HPC)",96 % of control
same,T/C,"dose: 15.0 mg/kg/injection, schedule: Q01DX005 (ip), vehicle: Klucel (hydroxypropylcellulose) (HPC)",102 % of control
same,T/C,"dose: 30.0 mg/kg/injection, schedule: Q01DX005 (ip), vehicle: Klucel (hydroxypropylcellulose) (HPC)",105 % of control
COc1cc(C(c2cc3c(cc2OC(C)=O)OCO3)C(C(C)=O)C(C)=O)cc(OC)c1OC (stereo not given),T/C,"dose: 60.0 mg/kg/injection, schedule: Q01DX005 (ip), vehicle: saline with Tween-80",106 % of control
same,T/C,"dose: 120.0 mg/kg/injection, schedule: Q01DX005 (ip), vehicle: saline with Tween-80",98 % of control
same,T/C,"dose: 240.0 mg/kg/injection, schedule: Q01DX005 (ip), vehicle: saline with Tween-80",121 % of control
CCOC(=O)c1c[nH][nH]c1=O,T/C,"dose: 25.0 mg/kg/injection, schedule: Q01DX009 (ip), vehicle: saline with Tween-80",95 % of control
same,T/C,[15],93 % of control
same,T/C,"dose: 100.0 mg/kg/injection, schedule: Q01DX001 (ip), vehicle: saline with Tween-80",98 % of control
same,T/C,[9],101 % of control
same,T/C,"dose: 200.0 mg/kg/injection, schedule: Q01DX001 (ip), vehicle: saline with Tween-80",106 % of control
same,T/C,[10],100 % of control
same,T/C,"dose: 400.0 mg/kg/injection, schedule: Q01DX001 (ip), vehicle: saline with Tween-80",94 % of control
CN1CN=C(Sc2ccc(Cl)cc2[N+](=O)[O-])NC1,T/C,[7],89 % of control
same,T/C,[8],100 % of control
same,T/C,"dose: 200.0 mg/kg/injection, schedule: Q01DX009 (ip), vehicle: saline",104 % of control
COC1=C(OC)C(=O)C(N2CCCCC2)=C(CO)C1=O,T/C,"dose: 60.0 mg/kg/injection, schedule: Q01DX005 (ip), vehicle: saline + Tween-80 + alcohol",88 % of control
same,T/C,"dose: 120.0 mg/kg/injection, schedule: Q01DX005 (ip), vehicle: saline + Tween-80 + alcohol",94 % of control
same,T/C,"dose: 240.0 mg/kg/injection, schedule: Q01DX005 (ip), vehicle: saline + Tween-80 + alcohol",107 % of control
CC1=C[P+](c2ccccc2)(c2ccccc2)C=C(C)O1,T/C,"dose: 3.12 mg/kg/injection, schedule: Q01DX005 (ip), vehicle: saline",96 % of control
same,T/C,"dose: 6.25 mg/kg/injection, schedule: Q01DX005 (ip), vehicle: saline",105 % of control
same,T/C,"dose: 12.5 mg/kg/injection, schedule: Q01DX005 (ip), vehicle: saline",105 % of control
O=C1OCCOCCOCCOCCOC1=O,T/C,"dose: 100.0 mg/kg/injection, schedule: Q04DX003 (ip), vehicle: saline",96 % of control
same,T/C,"dose: 200.0 mg/kg/injection, schedule: Q04DX003 (ip), vehicle: saline",101 % of control
same,T/C,"dose: 400.0 mg/kg/injection, schedule: Q04DX003 (ip), vehicle: saline",104 % of control
